# Source: patent US20250127863A1, “ANTIMICROBIAL PEPTIDE FOR ONYCHOMYCOSIS” (CBMR SCIENTIFIC NANOSCIENCE B.V., priority 2019, published 2025)
# No end group written: not given here.
# Tests used:
# Experiment in all cases: MIC90 growth inhibition
# Format in all cases: cell-based
# Conditions in all cases: RPMI 1640 one-fourth strength
# Mucor spp = tested on: Mucor spp
# Experimental: (§1) The minimum inhibitory concentration (MIC) value is defined as the lowest sample concentration that inhibited growth. In the Examples, the MIC90 value is presented, which MIC90 values are determined according to established methods known to the person with the skills in the relevant art. Experiments; 1×10E5 CFU of various strains/ml were incubated for 24-48 h at 37° C. in 4× diluted medium of RPMI 1640 with the indicated concentrations of antimicrobial peptide hLF(1-11) [SEQ ID NO: 3]. As controls various strains cells were incubated for 24-48 h at 37° C. with no agent (antimicrobial peptide), and subsequently, growth of the microbial organism (e.g. yeast, bacterium) was monitored by using spectrophotometry with a spectrophotometer at 620 nm. […] ND=Not done. Representative single assay data are listed rather than a range, for clarity reasons and for ease of comparison of peptide efficacy. The MIC was calculated as the lowest antibiotic (antimicrobial peptide) concentration at which growth of the assessed yeast or bacterium (microbe) was inhibited (inhibitory concentration IC90).
# Trichosporon beigelii = tested on: Trichosporon beigelii
# Experimental: as §1
# [1] = tested on: Penicillium spp. such as aff. Carbonarius
# Experimental: as §1
# [2] = tested on: Streptocococcus mitis 033
# Experimental: as §1
# [3] = tested on: Saccharomyces cerivisiae CMC-520
# Experimental: as §1
# Fusarium moniliforme = tested on: Fusarium moniliforme
# Experimental: as §1
# Sporotrichium spp = tested on: Sporotrichium spp
# Experimental: as §1
# Cladosporium trichoides = tested on: Cladosporium trichoides
# Experimental: as §1
# [4] = tested on: Zygosaccharomyces bisprous
# Experimental: as §1
# Streptococcus lactis = tested on: Streptococcus lactis
# Experimental: as §1
sequence,measurement,setting,value
"GRRRRSVQWCA [hLF1-11, Gly Arg Arg Arg Arg Ser Val Gln Trp Cys Ala]",Inhibitory concentration MIC (MIC90),Mucor spp,MIC = 25-50 μg/mL
same,Inhibitory concentration MIC (MIC90),Trichosporon beigelii,MIC = 40 μg/ml
same,Inhibitory concentration MIC (MIC90),[1],MIC = 45 μg/ml
same,Inhibitory concentration MIC (MIC90),[2],MIC = 6.3 μg/ml
same,Inhibitory concentration MIC (MIC90),[3],MIC = 50 μg/ml
same,Inhibitory concentration MIC (MIC90),Fusarium moniliforme,MIC = 2.5-5 μg/ml
same,Inhibitory concentration MIC (MIC90),Sporotrichium spp,MIC = 40 μg/ml
same,Inhibitory concentration MIC (MIC90),Cladosporium trichoides,MIC = 5 μg/ml
same,Inhibitory concentration MIC (MIC90),[4],MIC = 40 μg/ml
same,Inhibitory concentration MIC (MIC90),Streptococcus lactis,MIC = 3.1 μg/ml
